Patent US4771068A, “Mitomycin derivatives having anti-tumor and antibacterial utility” (priority 1985, dated 1988)
In brackets after ≈: the same amount, converted by molar mass.

Key:
Acute toxicity = conditions: mouse, in vivo, ip; ddY mice, intraperitoneally once, 14 days observation
Protocol: Each animal of the test group consisting of 5 ddY mice was administered intraperitoneally once with a test compound. […] The LD50 was determined by Beherns Kaerber's method.

[1] = tested on: Streptococcus faecalis ATCC 10541; experiment: Antibacterial activity (minimum growth inhibitory concentration), agar dilution method; type: cell-based; conditions: Enterococcus faecalis, ATCC10541; Streptococcus faecalis ATCC 10541, pH 7.0, agar dilution method; read-out: minimum growth inhibitory concentration, SF
Protocol: (§1) Antibacterial activities of Compounds (I) against various bacteria are shown by the minimum growth inhibitory concentration (μg/ml) in Table 3. The minimum growth inhibitory concentration was measured at pH 7.0 according to the agar dilution method. In the table, bacteria are indicated by the following letters.
SF: Streptococcus faecalis ATCC 10541

[2] = tested on: Proteus vulgalis ATCC 6897; experiment: as above; type: cell-based; conditions: pH 7, read-out: minimum growth inhibitory concentration, PV
Protocol: as §1
PV: Proteus vulgalis ATCC 6897

Solubility in water = type: physicochemical; conditions: aqueous buffer; 0.03M phosphate buffer (pH 7.0), 22° C., 15 minutes
Protocol: 1 mg of a test compound was added to 100 μl of 0.03M phosphate buffer (pH 7.0). The mixture was stirred at 22° C. for 15 minutes and filtered through Ekicrodisc 3 (disposable filter unit, Gelman Sciences Japan Co.) to remove insoluble matters. The filtrate is a saturated solution of the test compound. Predetermined amount of the saturated solution was injected into a high performance liquid chromatograph [column: YMC-A212 (C8) .phi.6 mm, 150 mm, eluting solvent: 0.01M-ammonium acetate/methanol, wave length for detection: 254 nm] and peak area of the chromatogram was calculated. Separately, a solution of the test compound in methanoL having a certain concentration of the compound was similarly subjected to the chromatography to make the calibration curve. The solubility of the test compound was calculated by the calibration curve.

peripheral leucocytes = experiment: Effect on the peripheral leucocytes number; type: in vivo, mouse (ddY strain); conditions: minimum dose reducing peripheral leucocytes number to 4000/mm^3; tumour-carrying ddY mice, intraperitoneal, 4 days after administration
Protocol: WBC4000 : Minimum dose of a test compound which reduces the
peripheral leucocytes number to 4000/mm^3.
Sarcoma 180 solid tumour cells (5×10^6) were subcutaneously implanted into the right axilla of each mouse (body weight 20±2 g) of a group consisting of 5 male mice (ddY strain). 24 hours after implantation,a test compound was intraperitoneally administered to each animal. 4 days after the administration, blood (each 0.02 ml) was collected from the suborbital plexus vein of each tumour-carrying animal. The collected sample of blood was dispersed in 9.98 ml of Cell-Kit Seven solution. One drop of saponin solution was added to the sample to dissolve erythrocytes and then a microcell counter was used to count the number of leucocytes. […] The relationship between the number of peripheral leucocytes and the dose of the test compound was plotted and the dose (i.e., WBC4000) corresponding to 4000 peripheral leucocytes/mm^3 (about half the number of leucocytes of normal mice) was obtained.

[3] = tested on: Staphylococcus aureus ATCC 6538P; experiment: Antibacterial activity (minimum growth inhibitory concentration), agar dilution method; type: cell-based; conditions: ATCC6538P, pH 7.0, agar dilution method, read-out: minimum growth inhibitory concentration, SA
Protocol: as §1
SA: Staphylococcus aureus ATCC 6538P

Bacillus subtilis 10707 = experiment: as above; type: cell-based; conditions: Bacillus subtilis 10707, pH 7.0, agar dilution method; read-out: minimum growth inhibitory concentration, BS
Protocol: as §1
BS: Bacillus subtilis 10707

[4] = tested on: Klebsiella pneumoniae ATCC 10031; experiment: as above; type: cell-based; conditions: ATCC10031; Klebsiella pneumoniae ATCC 10031, pH 7.0, agar dilution method; read-out: minimum growth inhibitory concentration, KP
Protocol: as §1
KP: Klebsiella pneumoniae ATCC 10031

Sarcoma 180 solid tumour = experiment: animal or person; conditions: for CIc: CI of test compound divided by CI of mitomycin C as control in the same condition; for ED50: Mus musculus, Sarcoma-180, iv, 168 h; for CI (LD50/ED50): chemotherapeutic index
Source text: CIc : Value given by division of CI of each test compound by CI of
determination of antitumour activity of the test compound. A CIc
5×10^6 cells of Sarcoma 180 solid tumour were intraperitoneally implanted into ddY mice. 7 days later, ascites cells were sampled. The cells were washed once with a sterilized physiological sodium chloride solution and were used to prepare a cell suspension containing 5×10^7 cells per ml with a sterilized physiological sodium chloride solution. On each occasion, 0.1 ml of the cell suspension was subcutaneously implanted into the right axilla of a male mouse (ddY strain; body weight 20±2 g).
The anti-tumour activity was determined in the following manner. 7 days after the implantation, the major axis (a) and the minor axis (b) of the tumour were measured to calculate a value of "a×b^2 /2" which corresponds to the volume of the tumour. The anti-tumour activity was expressed by the ratio (T/C) of the volume (T) of the tumours of the group of animals administered with the test compound to the corresponding volume (C) of tumours of the untreated animals.
On graph paper, T/C was indicated by an arithmetic scale on the longitudinal axis and the administered amount of the test compound was indicated by a logarithmic scale on the lateral axis.

Structure (SMILES) | LD50 at 336 h (Acute toxicity) [mg/kg] | MIC [1] [µg/mL] | MIC [2] [µg/mL] | solubility at 0.25 h (Solubility in water) [µg/mL] | WBC4000 (peripheral leucocytes) [mg/kg] | MIC [3] [µg/mL] | MIC (Bacillus subtilis 10707) [µg/mL] | MIC [4] [µg/mL] | CIc (Sarcoma 180 solid tumour) | ED50 (Sarcoma 180 solid tumour) [mg/kg] | CI (LD50/ED50) (Sarcoma 180 solid tumour)
CO[C@@]12[C@H](COC(N)=O)C3=C(C(=O)C(C)=C(NCCSC(C)=O)C3=O)N1C[C@@H]1N[C@@H]12 [Compound 1, 7-N-[(2-acetylthio)ethyl]mitomycin] | 5.6 | < 0.02 | 1.3 (≈ 2.98 µM) | 5600 (≈ 12800 µM) | 9.5 | < 0.02 | < 0.02 | 0.078 (≈ 0.179 µM) | 1.2 | 2.3 | 2.4
CC(=O)SCCNC1=C(C)C(=O)C2=C(C1=O)[C@H](COC(N)=O)[C@@]1(O)[C@@H]3[C@H](CN21)N3C (some centres unmarked) [Compound 2] | 26.3 | 3.1 (≈ 7.1 µM) | 25 (≈ 57.3 µM) | 8900 (≈ 20400 µM) | 14.1 | 3.1 (≈ 7.1 µM) | 0.78 (≈ 1.79 µM) | 6.3 (≈ 14.4 µM) | 1.9 | 5.6 | 4.7
CO[C@@]12[C@H](COC(N)=O)C3=C(C(=O)C(C)=C(NCCSC(C)=O)C3=O)N1C[C@H]1[C@@H]2N1C (some centres unmarked) [Compound 3] | 9.4 | 0.039 (≈ 0.0866 µM) | 20 (≈ 44.4 µM) | 3800 (≈ 8430 µM) | 11.0 | 0.078 (≈ 0.173 µM) | < 0.02 | 1.3 (≈ 2.89 µM) | 0.88 | 5.6 | 1.7
C=C1C2=C(C(=O)C(C)=C(NCCSC(C)=O)C2=O)N2C[C@H]3[C@H](N3C)[C@]12O (some centres unmarked) [Compound 4] | 45 | > 100 | 100 (≈ 266 µM) | 1900 (≈ 5060 µM) | 27.1 | 50 (≈ 133 µM) | 6.3 (≈ 16.8 µM) | 25 (≈ 66.6 µM) | 1.6 | 14.9 | 3.0
CO[C@@]12[C@H](COC(N)=O)C3=C(C(=O)C(C)=C(NCCCSC(C)=O)C3=O)N1C[C@@H]1N[C@@H]12 [Compound 7] | 11.3 | < 0.02 | 2.5 (≈ 5.55 µM) | 3500 (≈ 7770 µM) | > 25 | 0.039 (≈ 0.0866 µM) | < 0.02 | 0.31 (≈ 0.688 µM) | 0.88 | 5.2 | 2.2
CC(=O)SCCCNC1=C(C)C(=O)C2=C(C1=O)[C@H](COC(N)=O)[C@@]1(O)[C@@H]3[C@H](CN21)N3C (some centres unmarked) [Compound 8, 7-N-(3-acetylthiopropyl)mitomycin D] | – | 50 (≈ 111 µM) | – | 9600 (≈ 21300 µM) | – | > 100 | 13 (≈ 28.9 µM) | – | – | – | –
CO[C@@]12[C@H](COC(N)=O)C3=C(C(=O)C(C)=C(NCCCCSC(C)=O)C3=O)N1C[C@@H]1N[C@@H]12 [Compound 9] | 90 | < 0.02 | 5 (≈ 10.8 µM) | 2000 (≈ 4310 µM) | 65.2 | 0.039 (≈ 0.084 µM) | < 0.02 | 0.31 (≈ 0.667 µM) | 1.6 | 21.7 | 4.1
CO[C@@]12[C@H](COC(N)=O)C3=C(C(=O)C(C)=C(NCCCCCSC(C)=O)C3=O)N1C[C@@H]1N[C@@H]12 [Compound 10] | > 75 | 0.039 (≈ 0.0815 µM) | 5 (≈ 10.4 µM) | 1000 (≈ 2090 µM) | > 75 | 0.078 (≈ 0.163 µM) | 0.078 (≈ 0.163 µM) | 1.3 (≈ 2.72 µM) | > 1.1 | 37.5 | > 2.0
CO[C@@]12[C@H](COC(N)=O)C3=C(C(=O)C(C)=C(NCCSC(=O)c4ccc(F)cc4)C3=O)N1C[C@@H]1N[C@@H]12 [Compound 18] | 6 | 0.16 (≈ 0.31 µM) | 10 (≈ 19.4 µM) | – | 5 | < 0.02 | < 0.02 | 5 (≈ 9.68 µM) | 1.2 | 1.6 | 3.8
CO[C@@]12[C@H](COC(N)=O)C3=C(C(=O)C(C)=C(NCCCCCCCCSC(=O)c4ccc(F)cc4)C3=O)N1C[C@@H]1N[C@@H]12 [Compound 20] | 62.5 | 0.63 (≈ 1.05 µM) | > 40 | – | 13.0 | 0.63 (≈ 1.05 µM) | 0.31 (≈ 0.516 µM) | 40 (≈ 66.6 µM) | 1.6 | 16.3 | 3.8
COc1ccc(C(=O)SCCNC2=C(C)C(=O)C3=C(C2=O)[C@@H](COC(N)=O)[C@@]2(OC)[C@H]4N[C@H]4CN32)cc1 [Compound 23] | 6.3 | 0.16 (≈ 0.303 µM) | 10 (≈ 18.9 µM) | – | 5 | < 0.02 | < 0.02 | 5 (≈ 9.46 µM) | 0.81 | 2.5 | 2.5
CC1=C(NCCSC(=O)c2ccc([N+](=O)[O-])cc2)C(=O)C2=C(C1=O)N1C[C@H]3[C@H](N3C)[C@]1(O)[C@H]2COC(N)=O (some centres unmarked) [Compound 25] | 33.8 | 13 (≈ 23.9 µM) | > 100 | – | 15.9 | 3.1 (≈ 5.7 µM) | 0.39 (≈ 0.717 µM) | 13 (≈ 23.9 µM) | 1.6 | 6.9 | 4.9
CC(=S)SCCNC1=C(C)C(=O)C2=C(C1=O)[C@H](COC(N)=O)[C@@]1(O)[C@@H]3[C@H](CN21)N3C (some centres unmarked) [Compound 27, 7-N-(2-dithioacetyloxyethyl)mitomycin D] | 13.1 | 0.39 (≈ 0.862 µM) | 3.1 (≈ 6.85 µM) | – | 15.5 | 0.2 (≈ 0.442 µM) | < 0.049 | 0.78 (≈ 1.72 µM) | 1.1 | 3.4 | 3.9
CO[C@@]12[C@H](COC(N)=O)C3=C(C(=O)C(C)=C(NCCSC(C)=S)C3=O)N1C[C@H]1[C@@H]2N1C (some centres unmarked) [Compound 28] | 13.1 | 0.039 (≈ 0.0836 µM) | 2.5 (≈ 5.36 µM) | – | 10.4 | < 0.02 | < 0.02 | 1.3 (≈ 2.79 µM) | 1.1 | 3.3 | 4.0
CO[C@@]12[C@H](COC(N)=O)C3=C(C(=O)C(C)=C(NCCCCSC(C)=S)C3=O)N1C[C@@H]1N[C@@H]12 [Compound 30] | > 100 | 0.31 (≈ 0.645 µM) | 5 (≈ 10.4 µM) | – | 58.1 | 0.31 (≈ 0.645 µM) | 0.31 (≈ 0.645 µM) | 1.3 (≈ 2.7 µM) | > 1.1 | 37.7 | > 2.7
CO[C@@]12[C@H](COC(N)=O)C3=C(C(=O)C(C)=C(NCCCCCCSC(C)=S)C3=O)N1C[C@@H]1N[C@@H]12 [Compound 31] | > 100 | 2.5 (≈ 4.91 µM) | 10 (≈ 19.7 µM) | – | 27.5 | 1.3 (≈ 2.56 µM) | 2.5 (≈ 4.91 µM) | 2.5 (≈ 4.91 µM) | > 1.5 | 28.1 | > 3.6
